{
  "source": "PubChem BioAssay (NCI)",
  "test_in_all_cases": "DTP human tumour cell line panel, 48 h",
  "key": {"786-0 renal": {"system": "786-0 renal"}, "A498 renal": {"system": "A498 renal"}, "A549 NSCLC": {"system": "A549 NSCLC"}, "ACHN renal": {"system": "ACHN renal"}, "BT-549 breast": {"system": "BT-549 breast"}, "CAKI-1 renal": {"system": "CAKI-1 renal"}, "CCRF-CEM leukemia": {"system": "CCRF-CEM leukemia"}, "COLO 205 colon": {"system": "COLO 205 colon"}, "DU-145 prostate": {"system": "DU-145 prostate"}, "EKVX NSCLC": {"system": "EKVX NSCLC"}, "HCC-2998 colon": {"system": "HCC-2998 colon"}, "HCT-116 colon": {"system": "HCT-116 colon"}, "HCT-15 colon": {"system": "HCT-15 colon"}, "HL-60(TB) leukemia": {"system": "HL-60(TB) leukemia"}, "HOP-62 NSCLC": {"system": "HOP-62 NSCLC"}, "HOP-92 NSCLC": {"system": "HOP-92 NSCLC"}, "HS 578T breast": {"system": "HS 578T breast"}, "HT29 colon": {"system": "HT29 colon"}, "IGROV1 ovarian": {"system": "IGROV1 ovarian"}, "K-562 leukemia": {"system": "K-562 leukemia"}, "KM12 colon": {"system": "KM12 colon"}, "LOX IMVI melanoma": {"system": "LOX IMVI melanoma"}, "M14 melanoma": {"system": "M14 melanoma"}, "MALME-3M melanoma": {"system": "MALME-3M melanoma"}, "MCF7 breast": {"system": "MCF7 breast"}, "MDA-MB-231 breast": {"system": "MDA-MB-231 breast"}, "MDA-MB-435": {"system": "MDA-MB-435"}, "MOLT-4 leukemia": {"system": "MOLT-4 leukemia"}, "NCI-H226 lung": {"system": "NCI-H226 lung"}},
  "note": "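Five compound concentrations were applied to cells in 96-well plates for 48 hours; endpoints were derived by simple linear interpolation of the resulting dose-response curve. GI50: concentration for 50% inhibition of growth. TGI is the concentration that stops growth completely.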",
  "data": [
    {"compound": "COc1cc(-c2nccn2-c2ccc3ccccc3c2)cc(OC)c1OC", "values": [
      {"measurement": "GI50", "setting": "786-0 renal", "value": 56.4, "unit": "nM"},
      {"measurement": "TGI", "setting": "786-0 renal", "value": 12500, "unit": "nM"},
      {"measurement": "GI50", "setting": "A498 renal", "value": 77.8, "unit": "nM"},
      {"measurement": "TGI", "setting": "A498 renal", "value": 1360, "unit": "nM"},
      {"measurement": "GI50", "setting": "A549 NSCLC", "value": 740, "unit": "nM"},
      {"measurement": "TGI", "setting": "A549 NSCLC", "value": "> 65500", "unit": "nM"},
      {"measurement": "GI50", "setting": "ACHN renal", "value": 2590, "unit": "nM"},
      {"measurement": "TGI", "setting": "ACHN renal", "value": 49600, "unit": "nM"},
      {"measurement": "GI50", "setting": "BT-549 breast", "value": 99.5, "unit": "nM"},
      {"measurement": "TGI", "setting": "BT-549 breast", "value": 15600, "unit": "nM"},
      {"measurement": "GI50", "setting": "CAKI-1 renal", "value": "< 26.8", "unit": "nM"},
      {"measurement": "TGI", "setting": "CAKI-1 renal", "value": 47000, "unit": "nM"},
      {"measurement": "GI50", "setting": "CCRF-CEM leukemia", "value": 48, "unit": "nM"},
      {"measurement": "TGI", "setting": "CCRF-CEM leukemia", "value": 32500, "unit": "nM"},
      {"measurement": "GI50", "setting": "COLO 205 colon", "value": 40.2, "unit": "nM"},
      {"measurement": "TGI", "setting": "COLO 205 colon", "value": 2440, "unit": "nM"},
      {"measurement": "GI50", "setting": "DU-145 prostate", "value": 84.4, "unit": "nM"},
      {"measurement": "TGI", "setting": "DU-145 prostate", "value": "> 32300", "unit": "nM"},
      {"measurement": "GI50", "setting": "EKVX NSCLC", "value": 379, "unit": "nM"},
      {"measurement": "TGI", "setting": "EKVX NSCLC", "value": 48100, "unit": "nM"},
      {"measurement": "GI50", "setting": "HCC-2998 colon", "value": "< 36.7", "unit": "nM"},
      {"measurement": "TGI", "setting": "HCC-2998 colon", "value": 1660, "unit": "nM"},
      {"measurement": "GI50", "setting": "HCT-116 colon", "value": 40, "unit": "nM"},
      {"measurement": "TGI", "setting": "HCT-116 colon", "value": 11700, "unit": "nM"},
      {"measurement": "GI50", "setting": "HCT-15 colon", "value": "< 22.6", "unit": "nM"},
      {"measurement": "TGI", "setting": "HCT-15 colon", "value": 12600, "unit": "nM"},
      {"measurement": "GI50", "setting": "HL-60(TB) leukemia", "value": "< 17.6", "unit": "nM"},
      {"measurement": "TGI", "setting": "HL-60(TB) leukemia", "value": 1330, "unit": "nM"},
      {"measurement": "GI50", "setting": "HOP-62 NSCLC", "value": 67.5, "unit": "nM"},
      {"measurement": "TGI", "setting": "HOP-62 NSCLC", "value": 18300, "unit": "nM"},
      {"measurement": "GI50", "setting": "HOP-92 NSCLC", "value": 10100, "unit": "nM"},
      {"measurement": "TGI", "setting": "HOP-92 NSCLC", "value": 31400, "unit": "nM"},
      {"measurement": "GI50", "setting": "HS 578T breast", "value": 66.8, "unit": "nM"},
      {"measurement": "TGI", "setting": "HS 578T breast", "value": 71500, "unit": "nM"},
      {"measurement": "GI50", "setting": "HT29 colon", "value": "< 19.6", "unit": "nM"},
      {"measurement": "TGI", "setting": "HT29 colon", "value": 14000, "unit": "nM"},
      {"measurement": "GI50", "setting": "IGROV1 ovarian", "value": 1110, "unit": "nM"},
      {"measurement": "TGI", "setting": "IGROV1 ovarian", "value": "> 41200", "unit": "nM"},
      {"measurement": "GI50", "setting": "K-562 leukemia", "value": "< 15.6", "unit": "nM"},
      {"measurement": "TGI", "setting": "K-562 leukemia", "value": "> 32300", "unit": "nM"},
      {"measurement": "GI50", "setting": "KM12 colon", "value": "< 16.6", "unit": "nM"},
      {"measurement": "TGI", "setting": "KM12 colon", "value": 18200, "unit": "nM"},
      {"measurement": "GI50", "setting": "LOX IMVI melanoma", "value": 1530, "unit": "nM"},
      {"measurement": "TGI", "setting": "LOX IMVI melanoma", "value": 19000, "unit": "nM"},
      {"measurement": "GI50", "setting": "M14 melanoma", "value": 61.3, "unit": "nM"},
      {"measurement": "TGI", "setting": "M14 melanoma", "value": 12700, "unit": "nM"},
      {"measurement": "GI50", "setting": "MALME-3M melanoma", "value": 16000, "unit": "nM"},
      {"measurement": "TGI", "setting": "MALME-3M melanoma", "value": 47600, "unit": "nM"},
      {"measurement": "GI50", "setting": "MCF7 breast", "value": "< 13", "unit": "nM"},
      {"measurement": "TGI", "setting": "MCF7 breast", "value": 15800, "unit": "nM"},
      {"measurement": "GI50", "setting": "MDA-MB-231 breast", "value": 333, "unit": "nM"},
      {"measurement": "TGI", "setting": "MDA-MB-231 breast", "value": 22600, "unit": "nM"},
      {"measurement": "TGI", "setting": "MDA-MB-435", "value": 51.1, "unit": "nM"},
      {"measurement": "GI50", "setting": "MOLT-4 leukemia", "value": 70.8, "unit": "nM"},
      {"measurement": "TGI", "setting": "MOLT-4 leukemia", "value": 17000, "unit": "nM"},
      {"measurement": "GI50", "setting": "NCI-H226 lung", "value": 206, "unit": "nM"}
    ]}
  ]
}
